Reference: patent publication US20260207720A1, “COMPOSITIONS AND METHODS FOR TREATING FUNGAL INFECTIONS” (MUCPharm Pty Ltd, priority 2022, published 2026)
In brackets after ≈: the same amount, converted by molar mass. Read-outs that look alike come from different tables or passages of the source.

Legend:
Assay type in all cases: cell-based
Rhizopus microsporus = assay: Chequerboard broth microdilution antifungal susceptibility testing (MIC)
Description: (§1) Unless otherwise described, fungal cultures were grown on potato dextrose agar plates at 35° C. until mature (appearance of conidia) and used to prepare suspensions in sterile water. […] These suspensions were then added in equal volume to solutions containing the candidate species described above and incubated at 35° C. for 24 hr. Plates were then analysed for fungal growth inhibition and MIC values determined. […] [MICA (combined)/MICA]+[MICB (combined)/MICB] MICA (combined) is the MIC of drug A when both drugs (i.e. drug A and drug B) are present and MICA is the MIC of drug A used in isolation. Similarly, MICB (combined) is the MIC of drug B when both drugs are present and MICB is the MIC of drug B used in isolation.

Rhizopus arrhizus = assay: as above
Description: as §1

[1] = test system: Candida Krusei (ATCC strain 6258); assay: Broth dilution susceptibility test, MIC and percent growth (Example 6)
Description: (§2) A. Preparation of inoculum: • 1. Candida glabrata was grown on Sabouraud dextrose agar (SDA) at 37° C. for 24-48 hrs. • 2. Following this, 5 colonies of 1 mm diameter were picked and suspended in 5 mL sterile saline (0.9% saline) and vortexed for 15 seconds. • 3. Working suspension is prepared as a 1:100 dilution from stock suspension with RPMI 1640 culture medium. • 4. The cell density is adjusted with a spectrophotometer to the transmittance produced by a 0.5 McFarland standard (0.08 to 0.1) OD at 625 nm wavelength.
(§3) • 1. For Bromelain, a stock concentration of 1 mg/ml Bromelain solution was prepared in RPMI media and diluted to test concentrations of 62.4, 31.2, 15.6 and 7.8 μg/ml in RPMI 1640 media. • 2. Acetylcysteine stock concentration is 200 mg/ml, diluted to 40, 20, 10, and 5 mg/ml concentrations in RPMI 1640 medium. • 3. These concentrations are prepared at 2× of the required concentrations in the final assay plate.
(§4) Antifungal stock concentrations are as follows— • 1. Amphotericin B, Stock concentration: 250 μg/ml in water. • 2. Posaconazole, Original concentration: 300 mg in 16.7 ml, Working stock concentration: 1 mg/ml in DMSO. • 3. Fluconazole, Original concentration: 100 mg in 50 ml, Working stock concentration: 1 mg/ml in DMSO. • 4. The final concentration was prepared in RPMI 1640 media and concentrations range was 0.01-0.5 μg/mL for amphotericin B, 0.01-2 μg/mL for posaconazole and 0.01-64 μg/mL for fluconazole. • 5. These concentrations were prepared at 2× of the required concentrations in the final assay plate.
(§5) • 1. Wells of the 96-well plates were inoculated with appropriate concentrations and volumes of drugs. • 2. Sterility control and growth controls are included in each plate. • 3. Each 96-well plate (except the control wells) contains 100 μL of double strength (twice the final antifungal drug) concentrations. • 4. 100 μL of the fungal suspension is added to 96-well plates (except the sterility control wells). • 5. The growth control wells contained 100 μL of sterile drug-free medium and 100 μL of inoculum suspension, while the sterility control wells contained 200 μl of sterile drug-free medium. • 6. Plates are then incubated at 37° C. and read at 625,430, and 530 nm wavelengths. • 7. Data from 24 hours and absorbance at 625 nm were used for analysis.
These experiments were conducted to determine the effect of BromAc alone and in combination with existing antifungal drugs against Candida Krusei (ATCC strain 6258).
The method used in these experiments is essentially the same as that described above in Example 5.

[2] = test system: Candida glabrata (clinical isolate); assay: Broth dilution susceptibility test, MIC and percent growth (Example 5)
Description: These experiments were conducted to determine the effect of BromAc alone and in combination with existing antifungal drugs against Candida glabrata (clinical isolate).
as §2, §3, §4, §5

Scedosporium = assay: Susceptibility assay of antifungals with BromAc (Example 4); conditions: antifungal in combination with BromAc (5 mg/ml Acetylcysteine+12.5 μg/ml Bromelain) vs alone
Description: (§6) The in vitro antifungal properties of Bromelain, Acetylcysteine, BromAc, Amphotericin B, Isavuconazole, Fluconazole and Posaconazole were determined using a broth microdilution method in round bottom 96 well plates in accordance with standard procedures defined by the Clinical Laboratory Standards Institute (CLSI).
(§7) Unless otherwise described, fungal cultures were grown on potato dextrose agar plates at 35° C. until mature (appearance of conidia) and used to prepare suspensions in sterile water. Suspensions were diluted in RPMI 1:60. These suspensions were then added in equal volume to solutions containing the candidate species described above and incubated at 35° C. for 24 hr. Plates were then analysed for fungal growth inhibition and MIC values determined.
(§8) BromAc (5 mg/ml Acetylcysteine+12.5 μg/ml Bromelain) was used in combination with Amphotericin B, Isavuconazole, Posaconazole and Fluconazole. The MIC values of these four antifungal agents against the fungus described below were calculated and compared with their corresponding MIC values in the presence of BromAc, using the standard susceptibility assays described above.
(§9) The fungal strains set out in Table 2, all of which were sourced from a range of clinical isolates from Australian hospitals, were used in these experiments to gain a further understanding of the efficacy of BromAc in combination with Amphotericin B, Isavuconazole, Posaconazole and Fluconazole.

Candida auris = assay: as above
Description: as §6, §7, §8, §9

Cryptococcus = assay: as above
Description: as §6, §7, §8, §9

Candida tropicalis = assay: as above
Description: as §6, §7, §8, §9

Cunninghamella = assay: as above
Description: as §6, §7, §8, §9

[3] = antifungal in combination with BromAc (5 mg/ml Acetylcysteine+12.5 μg/ml Bromelain) vs alone

CC[C@@H]([C@H](C)O)n1ncn(-c2ccc(N3CCN(c4ccc(OC[C@@H]5CO[C@@](Cn6cncn6)(c6ccc(F)cc6F)C5)cc4)CC3)cc2)c1=O [Posaconazole]
isolates with more than 10× increase (Rhizopus microsporus; Rhizopus microspores, antifungal with BromAc): 9 of 10 | MIC (Rhizopus microsporus; Rhizopus microsporus, Rhizopus microsporus (80-21-006-5340), drug alone, read-out: MIC): 1 µg/mL (≈ 1.43 µM) | MIC (Rhizopus microsporus; Rhizopus microsporus, eight R. microsporus strains, read-out: MIC, average over the strains): 0.5 µg/mL (≈ 0.713 µM) | MIC (Rhizopus microsporus; Rhizopus microsporus, isolate R. microsporus 1, BromAc at constant concentration where combined, read-out: MIC): 1 µg/mL | MIC (Rhizopus microsporus; Rhizopus microsporus, isolate R. microsporus 2, BromAc at constant concentration where combined, read-out: MIC): 1 µg/mL | MIC (Rhizopus microsporus; Rhizopus microsporus, isolate R. microsporus 3, BromAc at constant concentration where combined, read-out: MIC): 0.25 µg/mL | MIC (Rhizopus microsporus; Rhizopus microsporus, isolate R. microsporus 4, BromAc at constant concentration where combined, read-out: MIC): 0.25 µg/mL | MIC (Rhizopus microsporus; Rhizopus microsporus, isolate R. microsporus 5, BromAc at constant concentration where combined, read-out: MIC): 0.25 µg/mL | MIC (Rhizopus microsporus; Rhizopus microsporus, isolate R. microsporus 6, BromAc at constant concentration where combined, read-out: MIC): 0.25 µg/mL | MIC (Rhizopus microsporus; Rhizopus microsporus, isolate R. microsporus 7, BromAc at constant concentration where combined, read-out: MIC): 0.25 µg/mL | MIC (Rhizopus microsporus; Rhizopus microsporus, isolate R. microsporus 8, BromAc at constant concentration where combined, read-out: MIC): 0.25 µg/mL | Observed inhibitory effect (Rhizopus microsporus; Rhizopus microsporus, antifungal in combination with BromAc (5 mg/ml Acetylcysteine+12.5 μg/ml Bromelain) vs alone): Strong (Strong = 5-10x (or greater) inhibitory effect) | MICs, range over the strains (Rhizopus microsporus; eight R. microsporus strains): 0.25 to 1 µg/mL | isolates with 10× increase (Rhizopus arrhizus; Rhizopus Arrhizus, antifungal with BromAc): 7 of 8 | MIC (Rhizopus arrhizus; Rhizopus arrhizus, Rhizopus arrhizus (80-21-015-4777), drug alone, read-out: MIC): 0.5 µg/mL (≈ 0.713 µM) | MIC (Rhizopus arrhizus; Rhizopus arrhizus, eight R. arrhizus strains, read-out: MIC, average over the strains): 0.8 µg/mL (≈ 1.14 µM) | MIC (Rhizopus arrhizus; Rhizopus arrhizus, isolate R. archizus 1, BromAc at constant concentration where combined, read-out: MIC): 1 µg/mL | MIC (Rhizopus arrhizus; Rhizopus arrhizus, isolate R. archizus 2, BromAc at constant concentration where combined, read-out: MIC): 1 µg/mL | MIC (Rhizopus arrhizus; Rhizopus arrhizus, isolate R. archizus 3, BromAc at constant concentration where combined, read-out: MIC): 0.25 µg/mL | MIC (Rhizopus arrhizus; Rhizopus arrhizus, isolate R. archizus 8, BromAc at constant concentration where combined, read-out: MIC): 0.25 µg/mL | MIC (Rhizopus arrhizus; Rhizopus arrhizus, isolate R. arrhizus 4, BromAc at constant concentration where combined, read-out: MIC): 0.25 µg/mL | MIC (Rhizopus arrhizus; Rhizopus arrhizus, isolate R. arrhizus 5, BromAc at constant concentration where combined, read-out: MIC): 0.25 µg/mL | MIC (Rhizopus arrhizus; Rhizopus arrhizus, isolate R. arrhizus 6, BromAc at constant concentration where combined, read-out: MIC): 0.5 µg/mL | MIC (Rhizopus arrhizus; Rhizopus arrhizus, isolate R. arrhizus 7, BromAc at constant concentration where combined, read-out: MIC): 0.25 µg/mL | Observed inhibitory effect (Rhizopus arrhizus; Rhizopus arrhizus, antifungal in combination with BromAc (5 mg/ml Acetylcysteine+12.5 μg/ml Bromelain) vs alone): Strong (Strong = 5-10x (or greater) inhibitory effect) | MICs, range over the strains (Rhizopus arrhizus; eight R. arrhizus strains): 0.25 to 1 µg/mL | MIC ([1]; Pichia kudriavzevii, ATCC6258, FIG. 10): 1 µg/mL | inhibition at 1 µg/mL ([1]; Pichia kudriavzevii, ATCC6258, Posaconazole 1 ug/ml, Fluconazole 32 μg/ml, read-out: activity (growth inhibition) at its MIC): > 50% | effect at lower doses / concentrations compared to GC (in words) ([1]; below the MIC (Posaconazole 0.03 μg/ml)): no significant inhibition | MIC ([2]; Nakaseomyces glabratus, 50% growth inhibition, 24 hours, 625 nm): 2 µg/mL | inhibition at 2 µg/mL ([2]; Nakaseomyces glabratus, at 2 μg/ml, read-out: decline in C. glabrata viability over the growth control): 25% | effect on C. glabrata viability / growth (in words) ([2]; at the concentrations tested, FIGS. 3-7): weaker antifungal effect | effect at lower concentration compared to growth control (in words) ([2]; concentrations lower than the MIC): slight decline | Observed inhibitory effect (Scedosporium): Possible | isolates with more than 10× increase (Candida auris; Candida auris, antifungal with BromAc): 4 of 5 | Observed inhibitory effect (Candida auris; Candida aurus, antifungal in combination with BromAc (5 mg/ml Acetylcysteine+12.5 μg/ml Bromelain) vs alone): Strong (Strong = 5-10x (or greater) inhibitory effect) | Observed inhibitory effect (Cryptococcus; [3]): Strong (Strong = 5-10x (or greater) inhibitory effect) | isolates with more than 10× increase (Cryptococcus; antifungal with BromAc): 5 of 5 | Observed inhibitory effect (Candida tropicalis; [3]): Strong (Strong = 5-10x (or greater) inhibitory effect) | isolates with more than a 10× increase in sensitivity (Candida tropicalis; antifungal with BromAc): 4 of 5 | Observed inhibitory effect (Cunninghamella; [3]): Moderate (Moderate = 1-5x inhibitory effect) | interaction with BromAc (in words) (Cunninghamella; antifungal with BromAc): some synergy
